# In paper PMC6680510, “Benzotriazine Di-Oxide Prodrugs for Exploiting Hypoxia and Low Extracellular pH in Tumors” (Molecules, 2019):
# “And” between values parts separate entries of the source, which are not always exact repeats. Equal values may be shown once. Read-outs that look alike come from different tables or passages of the source.
# What was measured:
# [1] = test system: FaDu cells; assay: IC50 assay (inhibition of proliferation, 4 h exposure, SRB); type: cell-based; details: for IC50: Homo sapiens, 4 h
# [2] = test system: SiHa cells; assay: as above; details: SiHa; for IC50: Homo sapiens, 4 h
# Description: (§1) Cells were seeded in 96-well plates (SiHa or FaDu 1500 cells/well, UT-SCC-74B 800 cells/well) in 100 μL. After incubation for 2 h, the drugs were added in 50 μL of the same titrated medium at 3× the final concentration to duplicate the wells. After a further 4 h the plates were checked for drug precipitation using a phase contrast microscope, then drugs were removed by aspirating and washing with the standard (pH 7.4) medium, then aspirating again and adding 150 μL of the medium. Cultures were then grown for 5 days before staining with sulphorhodamine B and measuring absorbance, with the estimation of IC50 values using 4-parameter logistic regression, as previously carried out.
# The medium and plasticware was equilibrated in the chamber for 3 days prior to use. In the anoxia experiments, FaDu cells were plated in poly-L-lysine coated plates (Corning Cat # 356461) to improve attachment.
# Cells were subsequently grown under standard cell culture conditions (oxia, pHe 7.4) for 5 days before staining with sulforhodamine B (SRB). […] (B) SN30000 (2). (C) BTO acid 4a. Values are means and errors are ranges for duplicate cultures in a single experiment. Fitted curves are 4-parameter logistic regressions. PCR = pH cytotoxicity ratio. ACR = anoxia cytotoxicity ratio. TMR = tumor microenvironment ratio.
# [3] = test system: SiHa cells; assay: IC50 assay modified for chronic hypoxia (oxia, hypoxia, anoxia); type: cell-based; details: for IC50: Homo sapiens
# Description: There are relatively few viable cells in tumors at O2 concentrations as low as in the above anoxic experiments. In addition, extensive changes in gene expression occur under chronic exposure to intermediate O2 concentrations (chronic hypoxia), including the expression of proteins that regulate pHi. […] Therefore, oxic and anoxic exposures were also tested in these same experiments. The 24 h adaptation to hypoxia had little effect on the subsequent growth of the cultures at either pHe value (Figure S6).
# To minimize problems with poor cell attachment under chronic hypoxia, the drugs were added from a 3-fold dilution series made in a separate plate, rather than by serial dilution in the plates containing the cells. In addition, the drugs were removed after the 4 h exposure by centrifuging the plates (200g × 5 min) prior to each aspiration. The same modifications were used for the oxic drug exposures in these experiments.
# [4] = test system: UT-SCC-74B cells; assay: IC50 assay (inhibition of proliferation, 4 h exposure, SRB); type: cell-based; details: for IC50: Homo sapiens, 4 h; for IC50 / PCR Anoxic (IC50 at pHe 7.4/IC50 at pHe 6.5) / PCR oxic (IC50 at pHe 7.4/IC50 at pHe 6.5): UT-SCC-74B
# Description: as §1
# The medium and plasticware was equilibrated in the chamber for 3 days prior to use. In the anoxia experiments, FaDu cells were plated in poly-L-lysine coated plates (Corning Cat # 356461) to improve attachment. […]
# Footnotes: a Number of experiments. b Anoxic cytotoxicity ratio = oxic IC50/anoxic IC50. c pH
# cytotoxicity ratio = IC50 at pHe 7.4/ IC50 at pHe 6.5. d Overall ratio = oxic IC50 pHe 7.4 / anoxic IC50 pHe
# 6.5. Values are means and errors are SEM. For ratios, the errors are root mean square SEM. […]
# [5] = Solubility in AlphaMEM + 5% FBS, pH 7.4; details: culture medium (AlphaMEM + 5% FBS), pH 7.4, plasma or biological fluid, kinetic from dmso stock
# [6] = pHe 6.5, 4 h, anoxic, read-out: Anoxic IC50
# [7] = pHe 6.5, 4 h, oxic, read-out: Oxic IC50
# [8] = pHe 7.4, 4 h, anoxic, read-out: Anoxic IC50
# [9] = pHe 7.4, 4 h, oxic, read-out: Oxic IC50
# [10] = read-out: Anoxic IC50, SiHa, pHe 6.5, 4 h, anoxic
# [11] = read-out: Anoxic IC50, SiHa, pHe 7.4, 4 h, anoxic
# [12] = read-out: Oxic IC50, SiHa, pHe 6.5, 4 h, oxic
# [13] = read-out: Oxic IC50, SiHa, pHe 7.4, 4 h, oxic
structure (smiles),measurement,setting,value
"Cc1ccc2c(c1)[n+]([O-])nc(NCCCC(=O)O)[n+]2[O-] (hydrate or solvate) [Compound 12a, 3-((3-Carboxypropyl)amino)-7-methylbenzo[e][1,2,4]triazine 1,4-Dioxide]",melting point,,185 to 188 °C
"O=C(O)CCCc1ccc(N(CCCl)CCCl)cc1 [Compound 1, chlorambucil]",IC50,[1]; [6],2.26 ± 0.37 µM
same,IC50,[1]; [7],3.19 ± 0.78 µM
same,IC50,[1]; [8],13.1 ± 8.7 µM
same,IC50,[1]; [9],15 ± 1.6 µM
same,IC50,[2]; [10],3.78 ± 1.51 µM
same,IC50,[2]; [11],13.6 ± 1.1 µM
same,IC50,[2]; [12],1.58 ± 0.27 µM
same,IC50,[2]; [13],12.7 ± 1.2 µM
same,PCR (IC50 for pHe 7.4/IC50 for pHe 6.5),[3]; 0.2% O2,9.9 ± 2.8
same,PCR (IC50 for pHe 7.4/IC50 for pHe 6.5),[3]; 20% O2,6.5 ± 2.0
same,PCR (IC50 for pHe 7.4/IC50 for pHe 6.5),[3]; <0.01% O2,7.40 ± 1.64
same,IC50,"[3]; 0.2% O2 (24 h before and during 4 h exposure), pHe 6.5",1.75 ± 0.44 µM
same,IC50,"[3]; 0.2% O2 (24 h before and during 4 h exposure), pHe 7.4",17.3 ± 2.53 µM
same,IC50,"[3]; 4 h, 20% O2, pHe 6.5, 4 h",1.84 ± 0.48 µM
same,IC50,"[3]; 4 h, 20% O2, pHe 7.4, 4 h",12 ± 2 µM
same,IC50,"[3]; 4 h, <0.01% O2, pHe 6.5, 4 h",1.49 ± 0.18 µM
same,IC50,"[3]; 4 h, <0.01% O2, pHe 7.4, 4 h",11 ± 2.1 µM
same,ACR (IC50 for 20% O2/IC50 for <0.01% O2),[3]; pHe 6.5,1.23 ± 0.34
same,HCR (IC50 for 20% O2/IC50 for 0.2% O2),[3]; pHe 6.5,1.05 ± 0.38
same,ACR (IC50 for 20% O2/IC50 for <0.01% O2),[3]; pHe 7.4,1.09 ± 0.27
same,HCR (IC50 for 20% O2/IC50 for 0.2% O2),[3]; pHe 7.4,0.69 ± 0.15
same,ACR (oxic IC50/anoxic IC50),[4],1.26 ± 0.20 and 0.94 ±0.21
same,IC50,"[4]; pHe 6.5, 4 h, 20% O2, read-out: Oxic IC50",0.8 ± 0.17 µM
same,IC50,"[4]; pHe 6.5, 4 h, <0.01% O2, read-out: Anoxic IC50",0.85 ± 0.06 µM
same,IC50,"[4]; pHe 7.4, 4 h, 20% O2, read-out: Oxic IC50",6.34 ± 0.88 µM
same,IC50,"[4]; pHe 7.4, 4 h, <0.01% O2, read-out: Anoxic IC50",5.05 ± 0.38 µM
same,PCR Anoxic (IC50 at pHe 7.4/IC50 at pHe 6.5),[4]; listed as CHL,5.9
same,PCR Anoxic (IC50 at pHe 7.4/IC50 at pHe 6.5),[4]; listed as CHL (1),5.94 ± 0.61
same,PCR oxic (IC50 at pHe 7.4/IC50 at pHe 6.5),[4]; listed as CHL,7.9
same,PCR oxic (IC50 at pHe 7.4/IC50 at pHe 6.5),[4]; listed as CHL (1),7.93 ± 2.01
"Cc1ccc2c(c1)[n+]([O-])nc(CCC(=O)O)[n+]2[O-] [Compound 5a, 3-(2-Carboxyethyl)-7-methylbenzo[e][1,2,4]triazine 1,4-Dioxide]",TMR (oxic IC50 pHe 7.4/anoxic IC50 pHe 6.5),[1],13.9 ± 1.7
same,IC50,[1]; [6],203 ± 18 µM
same,IC50,[1]; [7],1100 ± 110 µM
same,IC50,[1]; [8],924 ± 64 µM
same,IC50,[1]; [9],2770 ± 690 µM
same,PCR Anoxic (IC50 at pHe 7.4/IC50 at pHe 6.5),[1]; anoxic,4.29 ± 0.55
same,PCR oxic (IC50 at pHe 7.4/IC50 at pHe 6.5),[1]; oxic,2.55 ± 0.32
same,ACR (oxic IC50/anoxic IC50),[1]; pHe 6.5,5.49 ± 0.26
same,ACR (oxic IC50/anoxic IC50),[1]; pHe 7.4,3.00 ± 0.22
same,melting point,,181 to 183 °C (dec.)
same,solubility,[5],> 980 µM
same,IC50,[2]; [10],225 ± 38 µM
same,IC50,[2]; [11],542 ± 113 µM
same,IC50,[2]; [12],449 ± 188 µM
same,IC50,[2]; [13],> 3000 µM
same,TMR (overall TME ratio = oxic IC50 pHe 7.4/anoxic IC50 pHe 6.5),[2],>13
same,PCR Anoxic (IC50 at pHe 7.4/IC50 at pHe 6.5),[2]; anoxic,2.41 ± 0.64
same,PCR oxic (IC50 at pHe 7.4/IC50 at pHe 6.5),[2]; oxic,>6.7
same,ACR (anoxic cytotoxicity ratio = oxic IC50/anoxic IC50),[2]; pHe 6.5,1.99 ± 0.90
same,ACR (anoxic cytotoxicity ratio = oxic IC50/anoxic IC50),[2]; pHe 7.4,>5.5
"COC(=O)CCc1n[n+]([O-])c2cc(C)ccc2[n+]1[O-] [Compound 5b, 3-(3-Methoxy-3-oxopropyl)-7-methylbenzo[e][1,2,4]triazine 1,4-Dioxide]",melting point,,165 to 167 °C
same,solubility,[5],> 950 µM
"COC(=O)CCc1n[n+]([O-])c2ccc(C)cc2[n+]1[O-] [Compound 6b, 3-(3-Methoxy-3-oxopropyl)-6-methylbenzo[e][1,2,4]triazine 1,4-Dioxide]",melting point,,166 to 168 °C
same,solubility,[5],> 900 µM
